Results published in PubChem BioAssay (NCI).
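Growth conditions: 96-well plates. Treatment: test compound, 48 hours, 5 concentrations. Analysis: linear interpolation between bracketing concentrations; unreached endpoints set to highest concentration. GI50: concentration for 50% inhibition of growth. TGI: total growth inhibition.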

Legend:
Experiment in all cases: inhibition of tumour cell growth, NCI panel, 48 h
CCRF-CEM leukemia = system: CCRF-CEM leukemia
EKVX NSCLC = system: EKVX NSCLC
KM12 colon = system: KM12 colon
NCI-H226 lung = system: NCI-H226 lung
NCI-H460 lung = system: NCI-H460 lung
OVCAR-5 ovarian = system: OVCAR-5 ovarian
OVCAR-8 ovarian = system: OVCAR-8 ovarian
SK-MEL-2 melanoma = system: SK-MEL-2 melanoma
SK-MEL-28 melanoma = system: SK-MEL-28 melanoma
UACC-62 melanoma = system: UACC-62 melanoma

Row | SMILES | TGI (CCRF-CEM leukemia) [µM] | TGI (EKVX NSCLC) [µM] | TGI (KM12 colon) [µM] | TGI (NCI-H226 lung) [µM] | TGI (NCI-H460 lung) [µM] | TGI (OVCAR-5 ovarian) [µM] | TGI (OVCAR-8 ovarian) [µM] | TGI (SK-MEL-2 melanoma) [µM] | TGI (SK-MEL-28 melanoma) [µM] | TGI (UACC-62 melanoma) [µM] | GI50 (CCRF-CEM leukemia) [µM] | GI50 (EKVX NSCLC) [µM] | GI50 (OVCAR-5 ovarian) [µM]
1 | c1ncc(C23C4C5C6C4C2C6C53)[nH]1 (stereo not given) | > 100 | > 100 | > 100 | > 100 | > 100 | > 100 | > 100 | > 100 | > 100 | > 100 |  |  | 
2 | O=c1[nH]nc(Cc2ccc(Cl)cc2)n1Nc1ccccc1 | > 100 | > 100 | > 100 | > 100 | > 100 | > 100 | > 100 | > 100 | > 100 | > 100 |  |  | 
3 | C=CCSC1=N/C(=C\c2ccco2)C(=O)N1CC=C | > 100 | > 100 | > 100 | > 100 | > 100 | > 100 | > 100 | > 100 | > 100 | > 100 |  |  | 
4 | Nc1nc(Cl)cc(NCC2(CO)CC(O)C2)n1 (stereo not given) | > 100 | > 100 | > 100 | > 100 | > 100 | > 100 | > 100 | > 100 | > 100 | > 100 |  |  | 
5 | COc1cc([C@@H]2c3cc4c(cc3[C@@H](N=Cc3ccc(C(=O)O[C@H]5C[C@H]6OC[C@@]6(OC(C)=O)[C@H]6[C@H](OC(=O)c7ccccc7)[C@]7(O)C[C@H](OC(=O)[C@H](OC(=O)c8ccc(C=N[C@@H]9c%10cc%11c(cc%10[C@@H](c%10cc(OC)c(O)c(OC)c%10)[C@H]%10C(=O)OC[C@@H]%109)OCO%11)cc8)[C@@H](NC(=O)c8ccccc8)c8ccccc8)C(C)=C([C@@H](OC(C)=O)C(=O)[C@]56C)C7(C)C)cc3)C3COC(=O)C32)OCO4)cc(C)c1O (stereo not given in full) | > 50 | > 35.2 | > 50 | > 50 | > 50 | > 23.6 | > 50 | > 50 | > 50 | > 39.2 |  |  | 
6 | CNC1=C(C)C(=O)C2=C(C1=O)C(COC(N)=O)C1(OC)C3NC3CN21 (stereo not given) | > 100 | > 100 | 2.04 | 4.66 | 0.251 | 50.2 | 11 | 4.27 | 6.43 | 1.55 |  |  | 
7 | CCCCC[C@H]1CC=CC(=O)O1 | 40.6 | 56.7 | 13.9 | 23.9 | 21.2 | 70 | 24.8 | 19.1 | 20.5 | 23 |  |  | 
8 | Nc1cccc2cc(S(=O)(=O)Nc3ccc(C(=O)O)cc3)ccc12 | > 100 | > 100 | > 100 | > 100 | > 100 | > 100 | > 100 | > 100 | > 100 | > 100 |  |  | 
9 | COc1cccc(/C=N/[N-]C(N)=O)c1[O-].[OH3+].[Zn+2] | > 100 | > 100 | > 100 | > 100 | > 100 | > 100 | > 100 | > 100 | > 100 | > 100 |  |  | 
10 | O=C(O)C1CCCCN1CCc1c[nH]c2ccccc12 (stereo not given) | > 100 | > 100 | > 100 | > 100 | > 100 | > 100 | > 100 | > 100 | > 100 | > 100 |  |  | 
11 | Cc1ccc(CCCC(=O)O)cc1C | > 100 | > 100 | > 100 | > 100 | > 100 | > 100 | > 100 | > 100 | > 100 | > 100 |  |  | 
12 | COC(=O)/C=C(\S/C(=C(/c1ccccc1)n1cc(C(=O)OC)c(C(=O)OC)n1)c1ccccc1)C(=O)OC | 31.3 | 32.1 | > 100 | > 100 | > 100 | 32.7 | 3.88 | 35.8 | 60.4 | 94 |  |  | 
13 | O=C(O)c1ccccc1/C=C1\Cc2ccc3c(c2C1=O)CCCC3 | 66.2 | > 100 | > 100 | 82.7 | > 100 | > 100 | > 100 | 88.7 | > 100 | 46.5 |  |  | 
14 | CC[n+]1c(/C=C/c2ccc(N(CCCl)CCCl)cc2)ccc2cc(Br)ccc21 |  |  | 3.3 | 7.48 | 11.4 |  | 10.4 | 1.28 | 2.52 | 7.55 | 304 | 1060 | 202
15 | COC(=O)[C@H]1[C@H](OC(=O)[C@@H](OC)c2ccccc2)ON2CC[C@@H](OC(=O)c3ccccc3)[C@H]12 | > 100 | > 100 | > 100 | > 100 | > 100 | > 100 | > 100 | > 100 | > 100 | 28 |  |  | 
